The target in test [1] is human orexin-2 receptor (Homo sapiens (Human), UniProt O43614). The experiment in a line: FLIPR Ca2+ Flux Assay, orexin-2 receptor. The test is classed as cell-based. Particulars: CHO cells expressing the receptor; agonist 70 pM Ala-6,12 orexin-A; read-out: hOX2R FLIPR IC50. As to the method: The utility of the compounds in accordance with the present invention as orexin receptor OX1R and/or OX2R antagonists may be readily determined without undue experimentation by methodology well known in the art, including the “FLIPR Ca^2+ Flux Assay” (Okumura et al., Biochem. Biophys. Res. Comm. 280:976-981, 2001). In a typical experiment the OX1 and OX2 receptor antagonistic activity of the compounds of the present invention was determined in accordance with the following experimental method. For intracellular calcium measurements, Chinese hamster ovary (CHO) cells expressing the rat orexin-1 receptor or the human orexin-2 receptor, are grown in Iscove's modified DMEM containing 2 mM L-glutamine, […], 1% hypoxanthine-thymidine supplement, 100 U/ml penicillin, 100 µg/ml streptomycin and 10% heat-inactivated fetal calf serum (FCS). The cells are seeded at 20,000 cells/well into Becton-Dickinson black 384-well clear bottom sterile plates coated with poly-D-lysine. All reagents were from GIBCO-Invitrogen Corp. The seeded plates are incubated overnight at 37° C. and 5% CO2. Ala-6,12 human orexin-A as the agonist is prepared as a 1 mM stock solution in 1% bovine serum albumin (BSA) and diluted in assay buffer (HBSS containing 20 mM HEPES, 0.1% BSA and 2.5 mM probenecid, pH7.4) for use in the assay at a final concentration of 70 pM. Test compounds are prepared as 10 mM stock solution in DMSO, then diluted in 384-well plates, first in DMSO, then assay buffer. On the day of the assay, cells are washed 3 times with 100 μl assay buffer and then incubated for 60 min (37° C., 5% CO2) in 60 μl assay buffer containing 1 μM Fluo-4AM ester, 0.02% pluronic acid, and 1% BSA. The dye loading solution is then aspirated and cells are washed 3 times with 100 μl assay buffer. 30 μl of that same buffer is left in each well. Within the Fluorescent Imaging Plate Reader (FLIPR, Molecular Devices), test compounds are added to the plate in a volume of 25 μl, incubated for 5 min and finally 25 μl of agonist is added. Fluorescence is measured for each well at 1 second intervals for 5 minutes and the height of each fluorescence peak is compared to the height of the fluorescence peak induced by 70 pM Ala-6,12 orexin-A with buffer in place of antagonist. For each antagonist, IC50 value (the concentration of compound needed to inhibit 50% of the agonist response) is determined. Alternatively, compound potency can be assessed by a radioligand binding assay (described in Bergman et. al. Bioorg. Med. Chem. Lett. 2008, 18, 1425-1430) in which the inhibition constant (Ki) is determined in membranes prepared from CHO cells expressing either the OX1 or OX2 receptor. The intrinsic orexin receptor antagonist activity of a compound which may be used in the present invention may be determined by these assays.
human orexin-2 receptor, sequence (O43614 whole entry): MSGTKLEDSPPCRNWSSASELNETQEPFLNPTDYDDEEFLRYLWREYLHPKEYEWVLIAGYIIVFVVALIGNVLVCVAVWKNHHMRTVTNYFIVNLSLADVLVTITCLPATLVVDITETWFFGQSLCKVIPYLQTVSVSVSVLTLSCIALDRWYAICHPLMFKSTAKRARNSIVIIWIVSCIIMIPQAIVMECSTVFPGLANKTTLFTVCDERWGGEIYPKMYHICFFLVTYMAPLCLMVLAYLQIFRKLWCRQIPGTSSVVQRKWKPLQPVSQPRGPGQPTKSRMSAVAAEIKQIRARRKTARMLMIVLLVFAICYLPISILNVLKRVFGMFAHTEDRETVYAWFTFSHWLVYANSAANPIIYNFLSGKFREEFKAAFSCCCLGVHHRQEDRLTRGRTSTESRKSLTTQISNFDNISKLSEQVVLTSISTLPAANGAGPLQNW
(Calcium assays in cells follow changes in intracellular calcium, usually with a dye or a luminescent sensor.)

For test [2], the target named is hOX1R (Homo sapiens, UniProt O43613). The experiment in a line: FLIPR Ca2+ Flux Assay, orexin-1 receptor. The conditions noted are these: CHO cells expressing the receptor; agonist 70 pM Ala-6,12 orexin-A. The class given is cell-based.

One may read the IC50 as the concentration at which inhibition is half-maximal.

Take `COC(=O)c1ccnc(O[C@@H]2CC[C@@H](C)N(C(=O)c3ccccc3-n3nccn3)C2)c1Cl` [Example 5, Methyl 3-chloro-2-{[(3R,6R)-6-methyl-1-{[2-(2H-1,2,3-triazol-2-yl)phenyl]carbonyl}piperidin-3-yl]oxy}pyridine-4-carboxylate]: the figures for the IC50 in test [1] and in test [2] were 0.011 µM and 0.953 µM, respectively.
For `COC(=O)c1cc(O[C@@H]2CC[C@@H](C)N(C(=O)c3ccccc3-n3nccn3)C2)ncc1C(F)(F)F` [Example 3, methyl 2-{[(3R,6R)-6-methyl-1-{[2-(2H-1,2,3-triazol-2-yl)phenyl]-carbonyl}piperidin-3-yl]oxy}-5-(trifluoro-methyl)pyridine-4-carboxylate], the IC50 was 0.057 µM in test [1] and 0.028 µM in test [2].
Take `COC(=O)c1ccnc(O[C@@H]2CC[C@@H](C)N(C(=O)c3ccc(OC)nc3-c3ncccn3)C2)c1` [Example 12, Methyl 2-({(3R,6R)-1-[(6-methoxy-2-pyrimidin-2-ylpyridin-3-yl)carbonyl]-6-methylpiperidin-3-yl}oxy)pyridine-4-carboxylate]: the figures for the IC50 in test [1] and in test [2] were 2.11 µM and 10 µM, respectively.
The matching figures for `COC(=O)c1cc(O[C@@H]2CC[C@@H](C)N(C(=O)c3ccccc3-n3nccn3)C2)ncc1OC` [Example 10, Methyl 5-methoxy-2-{[(3R,6R)-6-methyl-1-{[2-(2H-1,2,3-triazol-2-yl)phenyl]carbonyl}piperidin-3-yl]oxy}pyridine-4-carboxylate]: 0.096 µM and 0.597 µM.
The matching figures for `COC(=O)c1ccnc(O[C@@H]2CC[C@@H](C)N(C(=O)c3ccccc3-n3nccn3)C2)c1F` [Example 8, methyl 3-fluoro-2-{[(3R,6R)-6-methyl-1-{[2-(2H-1,2,3-triazol-2-yl)phenyl]carbonyl}piperidin-3-yl]oxy}pyridine-4-carboxylate]: 0.0249 µM and 1.69 µM.
On to `COC(=O)c1cc(C)nc(O[C@@H]2CC[C@@H](C)N(C(=O)c3ccccc3-n3nccn3)C2)c1` [Example 7, methyl 2-methyl-6-{[(3R,6R)-6-methyl-1-{[2-(2H-1,2,3-triazol-2-yl)phenyl]carbonyl}piperidin-3-yl]oxy}pyridine-4-carboxylate], for which the IC50 in test [1] was 0.0826 µM; in test [2], 1.47 µM.
As to `COC(=O)c1ccnc(O[C@@H]2CC[C@@H](C)N(C(=O)c3ccccc3-n3nccn3)C2)c1` [Example 1, Methyl 2-{[(3R,6R)-6-methyl-1-{[2-(2H-1,2,3-triazol-2-yl)phenyl]carbonyl}piperidin-3-yl]oxy}pyridine-4-carboxylate], the IC50 in test [1] worked out at 0.026 µM; in test [2] it was 1.4 µM.
In the case of `COC(=O)c1cc(O[C@@H]2CC[C@@H](C)N(C(=O)c3ccccc3-n3nccn3)C2)ncc1Br` [Example 4, methyl 5-bromo-2-{[(3R,6R)-6-methyl-1-{[2-(2H-1,2,3-triazol-2-yl)phenyl]carbon-yl}piperidin-3-yl]oxy}pyridine-4-carboxylate], the values for the IC50 in test [1] and in test [2] were 0.06 µM and 0.0289 µM, respectively.
For the compound `COC(=O)c1ccnc(O[C@@H]2CC[C@@H](C)N(C(=O)c3ccccc3-n3nccn3)C2)c1C(=O)OC` [Example 6, dimethyl 2-{[(3R,6R)-6-methyl-1-{[2-(2H-1,2,3-triazol-2-yl)phenyl]-carbonyl}-piperidin-3-yl]oxy}pyridine-3,4-dicarboxylate], the results for the IC50 in test [1] and in test [2] were 0.0308 µM and 0.526 µM, respectively.
The matching figures for `COC(=O)c1ccnc(O[C@@H]2CC[C@@H](C)N(C(=O)c3ccc(OC)nc3-n3nccn3)C2)c1` [Example 9, methyl 2-{[(3R,6R)-1-{[6-methoxy-2-(2H-1,2,3-triazol-2-yl)pyridin-3-yl]carbonyl}-6-methylpiperidin-3-yl]oxy}pyridine-4-carboxylate]: 0.406 µM and 10 µM.
Consider `COC(=O)c1cc(O[C@@H]2CC[C@@H](C)N(C(=O)c3ccccc3-n3nccn3)C2)ncc1C` [Example 11, Methyl 5-methyl-2-{[(3R,6R)-6-methyl-1-{[2-(2H-1,2,3-triazol-2-yl)phenyl]carbonyl}piperidin-3-yl]oxy}pyridine-4-carboxylate], for which the IC50 was found to be 0.011 µM in test [1] and 0.031 µM in test [2].

The record behind these values is US9556145B2, “2-pyridyloxy-4-ester orexin receptor antagonists” (MERCK SHARP & DOHME CORP., priority 2012, dated 2017).
